Here are results for 21 compounds from patent US8507523B2, “Therapeutic tetrahydroisoquinoline-based compositions for cancer therapy” (priority 2006, dated 2013).

Test [1] has as its system normal primary cultures of rat brain astrocytes. The experiment in a line: Dose response (percent survival) in primary cultures of astrocytes. It counts as cell-based. The note with it: 4 days of treatment. An excerpt:
(§1) 6,7-Dimethoxy-1-[4-(4-methoxypyridin-3-yl)benzyl]-1,2,3,4-tetrahydroisoquinolinehydrochloride (EDL-291) was synthesized as described herein in the laboratory of Dr. Duane D. Miller at The University of Tennessee Health Science Center. Briefly, the primary cultures of astrocytes and cultures of C6 glioma cell lines were handled identically with respect to treatment concentrations and manipulations of cells for the screening assays. The cells were trypsinized and transferred to 96-well plates at a cell density of 10^3 cells/mm^2 in the wells. The cells were grown overnight in 100 μL of 10% FCS BME in a 37° C. incubator containing a humid, 5% CO2 atmosphere.
(§2) EDL291 was dissolved completely to make a […] stock solution and diluted to produce a series of concentrations. A 20 μL aliquot of these initial solutions was added to 180 μl of 2% FCS BME to produce the test concentration. The vehicle solution was tested as a control. […] Immediately before treatment, the 10% FCS BME was removed from the cells and replaced with the 180 μl of the treatment medium. The cultured cells (normal primary cultures of rat brain astrocytes or C6 glioma purchased from ATCC) were incubated with test compound for 4 days. The cells were fixed with 4% paraformaldehyde, stained with 0.1% Cresylecth violet stain, and quantitated. The screening data was collected as four wells for each dose per compound (screening) or concentration (dose response curve). Also, the average growth of 8 wells with no treatment was used as a negative control for each plate (100% growth). The cells for dose response curves were grown in the same media and were handled in a similar manner as in the screening assays.
(§3) The cytotoxic character of each compound was reported as the percent survival, calculated as the average A560 for treated cells divided by A560 of untreated (100% control) cells, and expressed as a percentage. Values less than 100% indicate a cytostatic or cytotoxic effect. Dose response curves and EC50 values were attained via plots of percent survival vs. concentration.

A further test has as its system C6 glioma. The experiment in a line: Dose response (percent survival) in C6 glioma cell cultures. Format: cell-based, rat. The note with it: C6 glioma cells, 4 days of treatment, percent survival.
Source text: as §1, §2, §3

Setting [2] is: Rattus norvegicus, Astrocyte, 96 h.
[3] abbreviates: Rattus norvegicus, C6 glioma, 96 h.

Each structure is given as a SMILES string. Counter-ions that a name gives are not always drawn. Like-named read-outs stand apart in the source and are kept apart here.

Turning to `COc1cc2c(cc1OC)C(Cc1ccc(-c3ccncc3)cc1)N(C(=O)OC(C)(C)C)CC2` (stereo not drawn) [Compound 3, 6,7-Dimethoxy-1-(4-pyridin-4-yl-benzyl)-3,4-dihydro-1H-isoquinoline-2-carboxylic acid tert-butyl ester], the figures for the EC50 (in test [1] (setting [2]); in the test on C6 glioma (setting [3])) were 18.4 µM and 5.92 µM, respectively.

Take `COc1cc2c(cc1OC)C(Cc1ccc(-c3ccncc3)cc1)NCC2` (stereo not drawn) [Compound 4, 6,7-Dimethoxy-1-(4-pyridin-4-ylbenzyl)-1,2,3,4-tetrahydroisoquinoline hydrochloride salt]: the EC50 in test [1] (setting [2]) amounted to 74.4 µM; in the test with C6 glioma (setting [3]), 17.7 µM.

For `COc1cc2c(cc1OC)C(Cc1ccc(-c3cccnc3OC)cc1)N(C(=O)OC(C)(C)C)CC2` (stereo not drawn) [Compound 6, 6,7-Dimethoxy-1-[4-(2-methoxypyridin-3-yl)benzyl]-3,4-dihydro-1H-isoquinoline-2-carboxylic acid tert-butyl ester], the “EC50 μM Astrocyte” value in test [1] was “No Effect”. Also, in the test on C6 glioma (setting [3]), the EC50 worked out at 4.3 µM.

For `COc1cc2c(cc1OC)C(Cc1ccc(-c3cccnc3OC)cc1)NCC2` (stereo not drawn) [Compound 7, 6,7-Dimethoxy-1-[4-(2-methoxypyridin-3-yl)benzyl]-1,2,3,4-tetrahydroisoquinoline hydrochloride salt], the EC50 in test [1] (setting [2]) is 50 to 100 µM; with C6 glioma (setting [3]), 1.75 µM.

Consider `COc1cc2c(cc1OC)C(Cc1ccc(-c3cccnc3OC)cc1)N(C)CC2` (stereo not drawn) [Compound 8, 6,7-dimethoxy-1-[4-(2-methoxypyridin-3-yl)benzyl]-2-methyl-1,2,3,4-tetrahydro-isoquinoline], for which the concentration giving a half-maximal response (EC50) in test [1] (setting [2]) was 27.3 µM; in the test with C6 glioma (listed as drawing 26), 2.2 µM.

As for `COc1cc2c(cc1OC)C(Cc1ccc(-c3cccnc3OC)cc1)N(C)CC2` (stereo not drawn) [Compound 9, 6,7-Dimethoxy-1-[4-(2-methoxypyridin-3-yl)benzyl]-2-methyl-1,2,3,4-tetrahydroisoquinolinehydrochloride], the results for the half-maximal effective concentration (EC50) (in test [1] (read-out: EC50 μM Astrocyte); with C6 glioma (listed as drawing 27)) were 25.3 µM and 5.5 µM, respectively.

In the case of `COc1cc2c(cc1OC)C(Cc1ccc(-c3ccncc3OC)cc1)N(C(=O)OC(C)(C)C)CC2` (stereo not drawn) [Compound 11, 6,7-Dimethoxy-1-[4-(3-methoxypyridin-4-yl)benzyl]-3,4-dihydro-1H-isoquinoline-2-carboxylic acid tert-butyl ester], the half-maximal effective concentration (EC50) in test [1] (setting [2]) was determined as 13.6 µM; with C6 glioma (setting [3]) it was 4.4 µM.

`COc1cc2c(cc1OC)C(Cc1ccc(-c3ccncc3OC)cc1)NCC2` (stereo not drawn) [Compound 12, 6,7-Dimethoxy-1-[4-(3-methoxypyridin-4-yl)benzyl]-1,2,3,4-tetrahydroisoquinoline hydrochloride salt]: the 50% effective concentration (EC50) in test [1] (setting [2]) stood at 49.5 µM; in the test on C6 glioma (setting [3]) it was 6.9 µM.

Regarding `COc1cc2c(cc1OC)C(Cc1ccc(-c3ccccc3NS(C)(=O)=O)cc1)N(C(=O)OC(C)(C)C)CC2` (stereo not drawn) [Compound 14, 1-(2′-Methanesulfonylaminobiphenyl-4-ylmethyl)-6,7-dimethoxy-3,4-dihydro-1H-isoquinoline-2-carboxylic acid tert-butyl ester], in test [1], the “EC50 μM Astrocyte” value is reported as “No Effect”. This compound showed a concentration giving a half-maximal response (EC50) in the test with C6 glioma (setting [3]) of 6.2 µM.

For the compound `COc1cc2c(cc1OC)C(Cc1ccc(-c3ccccc3NS(C)(=O)=O)cc1)NCC2` (stereo not drawn) [Compound 15, N-[4′-(6,7-Dimethoxy-1,2,3,4-tetrahydroisoquinolin-1-ylmethyl)-biphenyl-2-yl]-methanesulfonamide hydrochloride salt], the EC50 was 50 to 100 µM in test [1] (setting [2]) and 8.9 µM in the test with C6 glioma (setting [3]).

As to `COc1cc2c(cc1OC)C(Cc1ccc(-c3ccccc3NC(C)=O)cc1)N(C(=O)OC(C)(C)C)CC2` (stereo not drawn) [Compound 17, 1-(2′-Acetylaminobiphenyl-4-ylmethyl)-6,7-dimethoxy-3,4-dihydro-1H-isoquinoline-2-carboxylic acid tert-butyl ester], the “EC50 μM Astrocyte” value in test [1] is given as “No Effect”. In addition, the response with C6 glioma (setting [3]) was half-maximal at 9.2 µM (EC50).

On to `COc1cc2c(cc1OC)C(Cc1ccc(-c3ccccc3NC(C)=O)cc1)NCC2.Cl` (stereo not drawn) [Compound 18, N-[4′-(6,7-Dimethoxy-1,2,3,4-tetrahydroisoquinolin-1-ylmethyl)biphenyl-2-yl]acetamide hydrochloride salt], for which the “EC50 μM Astrocyte” value in test [1] was “No Effect”. The half-maximal effective concentration (EC50) in the test with C6 glioma (setting [3]) came to 22.4 µM.

In the case of `COc1cc2c(cc1OC)C(Cc1ccc(-c3cnccc3OC)cc1)N(C(=O)OC(C)(C)C)CC2` (stereo not drawn) [Compound 20, 6,7-Dimethoxy-1-[4-(4-methoxypyridin-3-yl)benzyl]-3,4-dihydro-1H-isoquinoline-2-carboxylic acid tert-butyl ester], the EC50 is 12.2 µM in test [1] (setting [2]) and 5.9 µM in the test on C6 glioma (setting [3]).

`COc1cc2c(cc1OC)C(Cc1ccc(-c3cnccc3OC)cc1)N(C)CC2` (stereo not drawn) [Compound 23, 6,7-Dimethoxy-1-[4-(4-methoxypyridin-3-yl)benzyl]-2-methyl-1,2,3,4-tetrahydroisoquinoline hydrochloride]: the concentration giving a half-maximal response (EC50) in test [1] (setting [2]) was 28.2 µM; in the test with C6 glioma (setting [3]), 3.3 µM.

As for `COc1ncc(-c2ccc(CC3c4cc(OC)c(OC)cc4CCN3C(=O)OC(C)(C)C)cc2)c(OC)n1` (stereo not drawn) [Compound 25, 1-[4-(2,4-Dimethoxypyrimidin-5-yl)benzyl]-6,7-dimethoxy-3,4-dihydro-1H-isoquinoline-2-carboxylic acid tert-butyl ester], the “EC50 μM Astrocyte” value in test [1] is “No Effect”. Also, in the test on C6 glioma (setting [3]), it took 6.8 µM to reach a half-maximal effect (EC50).

`COc1ncc(-c2ccc(CC3NCCc4cc(OC)c(OC)cc43)cc2)c(OC)n1` (stereo not drawn) [Compound 26, 1-[4-(2,4-Dimethoxypyrimidin-5-yl)benzyl]-6,7-dimethoxy-1,2,3,4-tetrahydroisoquinoline hydrochloride]: the EC50 in test [1] (setting [2]) was found to be 34 µM; in the test on C6 glioma (setting [3]), 9.3 µM.

With `COc1cc2c(cc1OC)C(Cc1ccc(-c3cncnc3)cc1)N(C(=O)OC(C)(C)C)CC2` (stereo not drawn) [Compound 28, 6,7-Dimethoxy-1-(4-pyrimidin-5-ylbenzyl)-3,4-dihydro-1H-isoquinoline-2-carboxylic acid tert-butyl ester], in test [1], the “EC50 μM Astrocyte” value is “No Effect”. For the same compound, the EC50 in the test on C6 glioma (setting [3]) was 15.2 µM.

Regarding `COc1cc2c(cc1OC)C(Cc1ccc(-c3cncnc3)cc1)NCC2.Cl` (stereo not drawn) [Compound 29, 6,7-Dimethoxy-1-(4-pyrimidin-5-ylbenzyl)-1,2,3,4-tetrahydroisoquinoline hydrochloride], the “EC50 μM Astrocyte” value in test [1] is recorded as “No Effect”. This compound also displayed an EC50 in the test on C6 glioma (setting [3]) of 39.4 µM.

In the case of `COc1cc2c(cc1OC)C(Cc1ccc(-c3cccnc3Cl)cc1)N(C(=O)OC(C)(C)C)CC2` (stereo not drawn) [Compound 31, 1-[4-(2-Chloro-pyridin-3-yl)benzyl]-6,7-dimethoxy-3,4-dihydro-1H-isoquinoline-2-carboxylic acid tert-butyl ester], the “EC50 μM Astrocyte” value in test [1] was “No Effect”. This compound showed an EC50 with C6 glioma (setting [3]) of 3.5 µM.

For `COc1cc2c(cc1OC)C(Cc1ccc(-c3cccnc3Cl)cc1)NCC2` (stereo not drawn) [Compound 32, 1-[4-(2-Chloro-pyridin-3-yl)benzyl]-6,7-dimethoxy-1,2,3,4-tetrahydroisoquinoline hydrochloride], the EC50 in test [1] (setting [2]) was 28.2 µM; in the test with C6 glioma (setting [3]) it was 2.7 µM.

Regarding `CC(C)(C)OC(=O)N1CCc2cc3c(cc2C1Cc1ccc(-c2cnccc2Cl)cc1)OCO3` (stereo not drawn) [Compound 40, 5-[4-(4-Chloropyridin-3-yl)benzyl]-7,8-dihydro-5H-[1,3]dioxolo[4,5-g]isoquinoline-6-carboxylic acid tert-butyl ester], the 50% effective concentration (EC50) in test [1] (setting [2]) was determined as 37.5 µM; in the test with C6 glioma (setting [3]), 6.3 µM.
